# Experimental data published in patent US7763615B2, “Ecteinascidin analogs for use as antitumour agents” (priority 2001, dated 2010).
# Read-outs that look alike come from different tables or passages of the source.
# Columns and labels:
# [1] = system: H9c2 (2-1), normal rat cardiac muscle cells; settings: 24 h
# [2] = system: (HEPG2); settings: human, 24 h, 30 μM
# [3] = system: H-MEC-1; assay: Inhibition of cells growth by colorimetric assay (SRB), H-MEC-1; assay type: cell-based; settings: for CC50: Homo sapiens
# Outline: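 Cells plated at 5×10^3 per well; 18 h later, test samples added across 10 to 10^−8 μg/ml; incubation continued 48 h at 37° C, 5% CO2. Cells then fixed with cold TCA, stained with SRB, dye solubilised in Tris, and optical density measured at 490 nm.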
# [4] = system: IGROV-ET; assay: cells; assay type: cell-based; settings: IGROV-ET; for CC50: read-out: LC50
# Outline: (§1)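 Human tumour cells seeded at 5×10^3 per well in RPMI 1640 10% FBS, attached 18 h, then exposed 48 h to samples from 10 to 10^−8 μg/ml in DMSO/EtOH/PBS. Growth measured by SRB staining after TCA fixation, OD 490 nm, triplicate wells; GI, TGI and LC derived.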
# [5] = system: DU145; assay: cells; assay type: cell-based; settings: for CC50: read-out: LC50
# Outline: as §1
# [6] = system: HT29; assay: cells; assay type: cell-based
# Outline: as §1
# [7] = system: LNCAP; assay: cells; assay type: cell-based
# Outline: as §1
# [8] = system: K562; assay: cells; assay type: cell-based; settings: for CC50: read-out: LC50
# Outline: as §1
# [9] = system: SK-BR3; assay: cells; assay type: cell-based; settings: for CC50: read-out: LC50
# Outline: as §1
# [10] = system: MEL-28; assay: cells; assay type: cell-based; settings: for CC50: read-out: LC50
# Outline: as §1
# [11] = system: LOVO-DOX; assay: cells; assay type: cell-based; settings: for GI50 / TGI: LOVO-DOX
# Outline: as §1
# [12] = system: IGROV; assay: cells; assay type: cell-based
# Outline: as §1
# [13] = system: LOVO; assay: cells; assay type: cell-based; settings: for CC50: read-out: LC50
# Outline: as §1
# [14] = system: PANC-1; assay: cells; assay type: cell-based; settings: for CC50: read-out: LC50
# Outline: as §1
# [15] = system: A549; assay: cells; assay type: cell-based; settings: for GI50: read-out: GI50
# Outline: as §1
# [16] = system: FDC-P1, normal mouse myelogeous stem cells; settings: 24 h
# [17] = physchem; settings: pH 7.4, log D n-Octanol-Dulbecco's PBS pH 7.4
# Description: The measurement of partition coefficient was evaluated based on a miniaturized shake-flask procedure. Buffer (Dulbecco's PBS, pH 7.40) was used as the aqueous phase. The tested compound was dissolved in DMSO, at the concentration of 100 μM. The final DMSO concentration (1%.) during the octanol-buffer partitioning are very low to avoid bias on the partitioning. The amount of compound in the buffer phase was determined by HPLC with photodiode array detection after an equilibration phase of 60 min. The amount of compound in the octanol phase is calculated by subtraction of the amount of compound in buffer from the total amount of compound, which is determined from a calibration sample.
# Log D is calculated as the Log10 of the amount of compound in the octanol phase divided by the amount of compound in the buffer phase. The effective range of the log D microassay is approximately −0.5 to +4.5.
# [18] = molecular target: CYP2D6 (Homo sapiens, UniProt P10635); assay: in vitro; settings: CYP2D6 (% inhibition)
# Sequence of CYP2D6 (P10635 whole entry): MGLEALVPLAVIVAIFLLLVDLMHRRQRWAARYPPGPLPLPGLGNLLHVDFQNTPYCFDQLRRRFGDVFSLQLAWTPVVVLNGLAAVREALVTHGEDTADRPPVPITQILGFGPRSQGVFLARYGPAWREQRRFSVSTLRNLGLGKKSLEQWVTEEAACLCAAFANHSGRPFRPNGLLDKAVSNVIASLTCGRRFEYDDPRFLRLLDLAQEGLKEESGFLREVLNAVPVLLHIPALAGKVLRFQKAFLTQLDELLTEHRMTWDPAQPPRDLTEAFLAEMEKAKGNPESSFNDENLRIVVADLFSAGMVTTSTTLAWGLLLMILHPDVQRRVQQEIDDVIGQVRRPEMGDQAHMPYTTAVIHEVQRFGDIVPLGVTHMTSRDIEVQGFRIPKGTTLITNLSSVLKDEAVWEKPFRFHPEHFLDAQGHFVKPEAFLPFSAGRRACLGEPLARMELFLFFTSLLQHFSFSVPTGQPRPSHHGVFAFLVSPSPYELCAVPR
# Description: For CYP2D6 inhibition assay, the compound are tested at 10 μM in duplicate with a 0.25% final concentration of both methanol and acetonitrile in presence of the fluorescent substrate AMMC (3-[2-N,N-diethyl-N-methylammonium)ethyl]-7-methoxy-4-methylcoumarin) at the concentration of 1.5 μM). The conversion of the AMMC in AHMC (3-[2-N,N-diethyl-N-methylammonium)ethyl]-7-hydroxy-4-methylcoumarin) is determined spectrofluorimetry after incubation with the enzyme during 450 min at 37° C.
# For both assays, the fluorescent intensity measured at t=0 is subtracted from that measured after the appropriate incubation time. The ratio of signal-to-noise is calculated by comparing the fluorescence in incubations containing the test compound to the control samples containing the same solvent vehicle. The percent of control activity is calculated and reported as percent inhibition.
# [19] = system: L8, normal rat skeletal muscle cells; settings: 24 h
# [20] = system: AML-12, normal mouse liver cells; settings: 24 h
# [21] = system: SK-OV3; assay: Inhibition of cells growth by colorimetric assay (SRB), SK-OV3; assay type: cell-based
# Outline: as §1
# [22] = s9, 60 min, 1 μM
# [23] = system: NRK-52E, normal rat kidney cells; settings: 24 h
# Description: In order to assess the cytotoxicity of the drugs to normal cells, we used 96 well plates plated at a density of 5000 cells per well (except for the FDC-P1 which were plated at 12,000 cells per well) with normal cell lines (ATCC, Table 1) maintained as per the directions of the ATCC: AML-12, normal mouse liver cells; NRK-52E, normal rat kidney cells; L8, normal rat skeletal muscle cells; FDC-P1, normal mouse myelogeous stem cells; and H9c2 (2-1), normal rat cardiac muscle cells. The cells in each plate were permitted to settle overnight before adding the test drug.
# To each well (100 μl medium) 10 μl of drug in media was added at varying concentrations (1×10-10-0.01 mg/ml final concentration) and further incubated overnight at 37° C. with 5% CO2. After 24 h the following assays were performed. All experiments were repeated at least 3 times and were assayed in duplicate.
# MTS assay (CellTiter 96 aqueous) was performed according to the manufacturer's (Promega) directions (for all cell types). Cell viability (mitochondrial activity) is determined via enzymatic conversion of the formazan substrate.
# [24] = molecular target: CYP3A4 (Homo sapiens, UniProt P08684); settings: 30 min, 10 µM
# Sequence of CYP3A4 (P08684 whole entry): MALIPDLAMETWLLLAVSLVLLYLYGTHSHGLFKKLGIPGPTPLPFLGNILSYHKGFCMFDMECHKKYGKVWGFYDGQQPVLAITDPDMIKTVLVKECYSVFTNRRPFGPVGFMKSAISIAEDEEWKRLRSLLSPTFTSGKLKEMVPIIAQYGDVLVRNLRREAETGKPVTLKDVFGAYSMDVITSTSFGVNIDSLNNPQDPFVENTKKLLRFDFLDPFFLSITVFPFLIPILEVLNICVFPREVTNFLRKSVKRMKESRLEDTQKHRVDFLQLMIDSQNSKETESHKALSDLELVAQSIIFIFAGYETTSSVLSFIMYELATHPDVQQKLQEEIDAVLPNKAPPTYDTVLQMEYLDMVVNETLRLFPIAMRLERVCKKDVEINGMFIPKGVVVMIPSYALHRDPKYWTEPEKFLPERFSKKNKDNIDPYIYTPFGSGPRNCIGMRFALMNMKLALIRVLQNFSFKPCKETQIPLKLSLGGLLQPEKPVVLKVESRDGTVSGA
# [25] = H-MEC-1, 48 hours exposure, SRB
# [26] = Homo sapiens, DU-145, 48 h, DU145, 48 hours exposure, SRB
# [27] = Homo sapiens, LNCaP, 48 h, 48 hours exposure, SRB
# [28] = Homo sapiens, 48 h, 48 hours exposure, SRB
# [29] = Homo sapiens, PANC-1, 48 h, PANC-1, 48 hours exposure, SRB
smiles,measurement,setting,value
COc1c(C)cc2c(c1O)[C@@H]1C3[C@@H]4SC[C@]5(NC(C)Cc6c5[nH]c5ccc(F)cc65)C(=O)COC[C@@H](c5c6c(c(C)c(OC(C)=O)c54)OCO6)N3[C@@H](O)[C@H](C2)N1C (some centres unmarked) [Compound 41],Heart,[1],3.49E−08
same,Cell Viability (% inhibition),[2],16 % inhibition
same,GI50,[3]; [25],4.68 nM
same,TGI,[3]; [25],4.08E−08 Molar
same,CC50,"[3]; HMEC-1, 48 h, read-out: LC50, H-MEC-1, 48 hours exposure, SRB",12700 nM
same,GI50,"[4]; 48 hours exposure, SRB",3.14 nM
same,TGI,"[4]; 48 hours exposure, SRB",2.00E−08 Molar
same,CC50,"[4]; 48 hours exposure, SRB",3860 nM
same,GI50,[5]; [26],3.49 nM
same,IC (TGI),[5]; [26],8.37 nM
same,CC50,"[5]; DU145, 48 hours exposure, SRB",9900 nM
same,GI50,"[6]; HT29, 48 hours exposure, SRB",5.66 nM
same,TGI,"[6]; HT29, 48 hours exposure, SRB",6.07E−08 Molar
same,CC50,"[6]; Homo sapiens, HT-29, 48 h, read-out: LC50, HT29, 48 hours exposure, SRB",12700 nM
same,GI50,[7]; [27],2.62 nM
same,IC (TGI),[7]; [27],5.17 nM
same,CC50,"[7]; Homo sapiens, LNCaP, 48 h, read-out: LC50, LNCAP, 48 hours exposure, SRB",10.2 nM
same,GI50,"[8]; K562, 48 hours exposure, SRB",0.11 nM
same,TGI,"[8]; K562, 48 hours exposure, SRB",2.19E−09 Molar
same,CC50,"[8]; K562, 48 hours exposure, SRB",5.57 nM
same,GI50,"[9]; SK-BR3, 48 hours exposure, SRB",2.33 nM
same,TGI,"[9]; SK-BR3, 48 hours exposure, SRB",6.86E−09 Molar
same,CC50,"[9]; SK-BR3, 48 hours exposure, SRB",36.3 nM
same,GI50,"[10]; MEL-28, 48 hours exposure, SRB",6.72 nM
same,TGI,"[10]; MEL-28, 48 hours exposure, SRB",2.66E−08 Molar
same,CC50,"[10]; MEL-28, 48 hours exposure, SRB",102 nM
same,GI50,[11]; [28],30.5 nM
same,CC50,"[11]; Homo sapiens, 48 h, read-out: LC50, LOVO-DOX, 48 hours exposure, SRB",12700 nM
same,TGI,"[11]; 48 hours exposure, SRB",9.99E−08 Molar
same,GI50,[12]; [28],1.94 nM
same,IC (TGI),[12]; [28],4.14 nM
same,CC50,"[12]; Homo sapiens, 48 h, read-out: LC50, IGROV, 48 hours exposure, SRB",8.86 nM
same,IC (TGI),"[13]; Homo sapiens, LoVo, 48 h, 48 hours exposure, SRB",24.4 nM
same,GI50,"[13]; LOVO, 48 hours exposure, SRB",4.42 nM
same,CC50,"[13]; LOVO, 48 hours exposure, SRB",410 nM
same,GI50,[14]; [29],10.8 nM
same,IC (TGI),[14]; [29],48.9 nM
same,CC50,"[14]; PANC-1, 48 hours exposure, SRB",506 nM
same,GI50,"[15]; Homo sapiens, A549, 48 h, A549, 48 hours exposure, SRB",19.8 nM
same,IC (TGI),"[15]; Homo sapiens, A549, 48 h, A549, 48 hours exposure, SRB, read-out: TGI",46.8 nM
same,CC50,"[15]; Homo sapiens, A549, 48 h, read-out: LC50, A549, 48 hours exposure, SRB",110 nM
same,Myelo,[16],1.39E−07
same,logD at 60 min,[17],> 4.5
same,"inhibition at 450 min, 10 µM",[18],16%
same,Skeletal,[19],2.39E−07
same,Liver,[20],6.30E−08
same,GI50,"[21]; Homo sapiens, SK-OV-3, 48 h, SK-OV3, 48 hours exposure, SRB",3.85 nM
same,CC50,"[21]; Homo sapiens, SK-OV-3, 48 h, read-out: LC50, SK-OV3, 48 hours exposure, SRB",12700 nM
same,TGI,"[21]; SK-OV3, 48 hours exposure, SRB",9.82E−09 Molar
same,Human Liver S9 Metabolic Stability (% remaining),[22],7 % remaining
same,Kidney,[23],1.89E−08
same,Solubility Dulbecco's PBS pH 7.4,,<1 est μM
same,CYP3A4 (% inhibition),[24],22 % inhibition
COc1c(C)cc2c(c1O)[C@@H]1C3[C@@H]4SC[C@]5(NC(C)Cc6c5[nH]c5ccccc65)C(=O)COC[C@@H](c5c6c(c(C)c(OC(C)=O)c54)OCO6)N3[C@@H](O)[C@H](C2)N1C (some centres unmarked) [Compound 43],Heart,[1],9.42E−08
same,GI50,[3]; H-MEC-1,11.8 nM
same,TGI,[3]; H-MEC-1,1.77E−07
same,CC50,"[3]; HMEC-1, read-out: LC50, H-MEC-1",13000 nM
same,GI50,[4],9.1 nM
same,TGI,[4],2.35E−08
same,CC50,[4],13000 nM
same,TGI,[5]; DU145,9.04E−09
same,GI50,"[5]; Homo sapiens, DU-145, DU145",4.76 nM
same,CC50,[5]; DU145,13 nM
same,TGI,[6]; HT29,1.04E−07
same,GI50,"[6]; Homo sapiens, HT-29, HT29",46.4 nM
same,CC50,"[6]; Homo sapiens, HT-29, read-out: LC50, HT29",13000 nM
same,GI50,[7]; LNCAP,2.02 nM
same,TGI,[7]; LNCAP,3.76E−09
same,CC50,"[7]; read-out: LC50, LNCAP",7 nM
same,GI50,"[8]; Homo sapiens, K562, K562",2.51 nM
same,TGI,[8]; K562,4.88E−09
same,CC50,[8]; K562,9.49 nM
same,GI50,[9]; SK-BR3,3.77 nM
same,TGI,[9]; SK-BR3,8.65E−09
same,CC50,[9]; SK-BR3,41.1 nM
same,GI50,[10]; MEL-28,308 nM
same,TGI,[10]; MEL-28,5.81E−07
same,CC50,[10]; MEL-28,1090 nM
same,CC50,"[11]; Homo sapiens, read-out: LC50, LOVO-DOX",13000 nM
same,GI50,[11],39.8 nM
same,TGI,[11],1.06E−07
same,TGI,[12],5.20E−09
same,GI50,[12]; Homo sapiens,2.73 nM
same,CC50,[12]; read-out: LC50,9.88 nM
same,GI50,[13]; LOVO,3.5 nM
same,TGI,[13]; LOVO,8.32E−09
same,CC50,[13]; LOVO,38.9 nM
same,GI50,[14]; PANC-1,5.28 nM
same,TGI,[14]; PANC-1,1.15E−08
same,CC50,[14]; PANC-1,39 nM
same,TGI,[15]; A549,1.08E−08
same,GI50,[15]; A549,5.12 nM
same,CC50,"[15]; read-out: LC50, A549",32.8 nM
same,Myelo,[16],6.23E−08
same,logD at 60 min,[17],> 4.5
same,Skeletal,[19],1.60E−07
same,Liver,[20],7.57E−08
same,GI50,[21]; SK-OV3,3.39 nM
same,TGI,[21]; SK-OV3,7.17E−09
same,CC50,"[21]; read-out: LC50, SK-OV3",13 nM
same,Human Liver S9 Metabolic Stability (% remaining),[22],3 % remaining
same,Kidney,[23],4.38E−08
same,Solubility Dulbecco's PBS pH 7.4,,5.85 μM
same,CYP3A4 (% inhibition),[24],15 % inhibition
